The source made the active and inactive calls. No cut-off for these calls is given here.
Legend:
[1] = target: Potassium channel subfamily K member 3 (Homo sapiens) (UniProt O14649); assay: Activation of K2P3.1 (unknown origin) expressed in Xenopus oocytes assessed as effect on channel currents at -80 mV holding potential by two-electrode voltage clamp assay relative to control; type: cell-based
[2] = target: T1, Potassium channel subfamily K member 2 (Homo sapiens) (UniProt O95069); assay: Inhibition of K2P2.1 (unknown origin) expressed in SGY1528 yeast cells assessed as inhibition of cell growth at 10 uM incubated for 24 hrs by alamar blue dye based assay relative to control
T1 sequence (whole entry): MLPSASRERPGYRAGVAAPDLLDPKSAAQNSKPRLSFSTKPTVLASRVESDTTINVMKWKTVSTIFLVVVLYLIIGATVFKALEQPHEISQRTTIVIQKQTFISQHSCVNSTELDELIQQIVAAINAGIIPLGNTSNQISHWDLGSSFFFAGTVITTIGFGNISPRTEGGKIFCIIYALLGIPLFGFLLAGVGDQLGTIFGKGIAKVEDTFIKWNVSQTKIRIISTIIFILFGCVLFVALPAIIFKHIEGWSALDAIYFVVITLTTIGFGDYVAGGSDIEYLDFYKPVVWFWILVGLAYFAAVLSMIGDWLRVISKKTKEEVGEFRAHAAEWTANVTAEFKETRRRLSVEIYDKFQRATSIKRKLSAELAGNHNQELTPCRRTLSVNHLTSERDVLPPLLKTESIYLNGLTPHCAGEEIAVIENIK

[3] = target: Potassium channel subfamily K member 3 (Homo sapiens) (UniProt O14649); assay: Activation of K2P3.1 (unknown origin) expressed in Xenopus oocytes assessed as effect on channel currents at -80 mV holding potential at 500 uM by two-electrode voltage clamp assay relative to control; type: cell-based
[4] = target: T2, Potassium channel subfamily K member 10 (Homo sapiens, UniProt P57789); assay: Activation of K2P10.1 (unknown origin) expressed in Xenopus oocytes assessed as effect on channel currents at -80 mV holding potential by two-electrode voltage clamp assay; type: cell-based
T2 sequence (P57789 whole entry): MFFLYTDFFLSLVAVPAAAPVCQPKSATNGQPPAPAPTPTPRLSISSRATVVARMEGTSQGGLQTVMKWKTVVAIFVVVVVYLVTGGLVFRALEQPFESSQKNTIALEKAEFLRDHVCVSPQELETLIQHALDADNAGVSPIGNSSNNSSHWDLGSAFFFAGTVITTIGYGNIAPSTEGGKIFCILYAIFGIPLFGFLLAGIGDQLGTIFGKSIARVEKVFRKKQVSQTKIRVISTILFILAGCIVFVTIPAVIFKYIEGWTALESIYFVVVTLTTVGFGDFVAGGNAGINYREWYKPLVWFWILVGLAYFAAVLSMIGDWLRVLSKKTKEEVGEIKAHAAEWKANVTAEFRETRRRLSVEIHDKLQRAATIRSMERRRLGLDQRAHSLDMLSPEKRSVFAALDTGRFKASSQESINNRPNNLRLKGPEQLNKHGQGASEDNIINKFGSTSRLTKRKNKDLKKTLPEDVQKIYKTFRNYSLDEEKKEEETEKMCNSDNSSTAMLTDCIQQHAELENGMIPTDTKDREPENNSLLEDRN

[5] = target: T1, Potassium channel subfamily K member 2 (Homo sapiens); assay: Activation of K2P2.1 (unknown origin) expressed in Xenopus oocytes assessed as effect on channel currents at +40 mV holding potential at 400 uM by two-electrode voltage clamp assay; type: cell-based
[6] = target: T1, Potassium channel subfamily K member 2 (Homo sapiens); assay: Activation of K2P2.1 (unknown origin) expressed in Xenopus oocytes assessed as effect on channel currents at 500 uM at -80 mV holding potential by two-electrode voltage clamp assay; type: cell-based
[7] = target: Potassium voltage-gated channel subfamily KQT member 2 (Homo sapiens) (UniProt O43526); assay: Activation of Kv7.2 (unknown origin) expressed in Xenopus oocytes assessed as effect on channel currents at 100 uM at -80 mV holding potential by two-electrode voltage clamp assay relative to control; type: cell-based
Potassium voltage-gated channel subfamily KQT member 2 (Homo sapiens), sequence (O43526 whole entry): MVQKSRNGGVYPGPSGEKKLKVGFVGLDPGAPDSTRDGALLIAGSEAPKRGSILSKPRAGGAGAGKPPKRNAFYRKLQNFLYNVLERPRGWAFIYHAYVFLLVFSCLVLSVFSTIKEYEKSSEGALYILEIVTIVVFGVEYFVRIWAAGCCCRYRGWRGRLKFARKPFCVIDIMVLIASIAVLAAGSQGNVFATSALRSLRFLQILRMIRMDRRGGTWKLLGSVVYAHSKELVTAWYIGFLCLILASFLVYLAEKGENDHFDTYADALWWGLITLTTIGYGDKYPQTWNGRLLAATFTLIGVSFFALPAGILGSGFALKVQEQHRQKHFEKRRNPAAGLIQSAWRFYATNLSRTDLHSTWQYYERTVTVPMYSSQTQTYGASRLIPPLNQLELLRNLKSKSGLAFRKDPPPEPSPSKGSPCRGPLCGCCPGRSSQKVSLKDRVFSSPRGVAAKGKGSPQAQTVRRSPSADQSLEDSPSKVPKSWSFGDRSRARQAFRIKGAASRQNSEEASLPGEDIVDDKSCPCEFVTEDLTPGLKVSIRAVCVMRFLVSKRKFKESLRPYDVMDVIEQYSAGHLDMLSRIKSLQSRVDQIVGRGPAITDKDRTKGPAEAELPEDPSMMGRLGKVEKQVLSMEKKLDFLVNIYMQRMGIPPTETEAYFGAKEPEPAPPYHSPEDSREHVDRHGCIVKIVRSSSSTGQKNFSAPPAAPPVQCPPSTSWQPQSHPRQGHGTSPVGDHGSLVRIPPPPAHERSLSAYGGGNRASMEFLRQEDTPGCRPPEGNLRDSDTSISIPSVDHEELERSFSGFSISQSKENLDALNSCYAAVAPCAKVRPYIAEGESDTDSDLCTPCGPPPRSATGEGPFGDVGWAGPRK

Homo sapiens = species on record: Homo sapiens; assay: Selectivity index, ratio of IC50 for inhibition of Trk1p (unknown origin) expressed in SGY1528 yeast cells assessed as inhibition of cell growth by alamar blue dye based assay to IC50 for inhibition of K2P2.1 (unknown origin) expressed in SGY1528 yeast cells assessed as inhibition of cell growth by alamar blue dye based assay
[8] = target: T3, Potassium channel subfamily K member 10 (Homo sapiens) (UniProt P57789); assay: Activation of K2P10.1 (unknown origin) expressed in Xenopus oocytes assessed as effect on channel currents at 500 uM at -80 mV holding potential by two-electrode voltage clamp assay; type: cell-based
T3 sequence (whole entry): T2 sequence (P57789 whole entry)

[9] = target: T1, Potassium channel subfamily K member 2 (Homo sapiens); assay: Activation of K2P2.1 (unknown origin) expressed in Xenopus oocytes assessed as effect on channel currents at 200 uM at -80 mV holding potential by two-electrode voltage clamp assay; type: cell-based
[10] = target: Potassium voltage-gated channel subfamily KQT member 2 (Homo sapiens) (UniProt O43526); assay: Activation of Kv7.2 (unknown origin) expressed in Xenopus oocytes assessed as effect on channel currents at 500 uM at -80 mV holding potential by two-electrode voltage clamp assay relative to control; type: cell-based
[11] = target: Potassium voltage-gated channel subfamily KQT member 2 (Homo sapiens) (UniProt O43526); assay: Activation of Kv7.2 (unknown origin) expressed in Xenopus oocytes assessed as effect on channel currents at -80 mV holding potential by two-electrode voltage clamp assay relative to control; type: cell-based
[12] = target: T1, Potassium channel subfamily K member 2 (Homo sapiens); assay: Activation of K2P2.1 (unknown origin) expressed in Xenopus oocytes assessed as effect on channel currents at -80 mV holding by two-electrode voltage clamp assay relative to control; type: cell-based
[13] = target: T1, Potassium channel subfamily K member 2 (Homo sapiens); assay: Reversible activation of K2P2.1 (unknown origin) expressed in Xenopus oocytes assessed as effect on channel currents at 100 uM at -80 mV holding potential by two-electrode voltage clamp assay relative to control; type: cell-based
[14] = target: T1, Potassium channel subfamily K member 2 (Homo sapiens); assay: Inhibition of K2P2.1 (unknown origin) expressed in Xenopus oocytes assessed as effect on channel currents at -80 mV holding potential at 100 uM by two-electrode voltage clamp assay relative to control; type: cell-based
[15] = target: T4, Potassium channel subfamily K member 2 (Homo sapiens, UniProt O95069); assay: Inhibition of K2P2.1 (unknown origin) expressed in Xenopus oocytes assessed as effect on channel currents at -80 mV holding potential by two-electrode voltage clamp assay; type: cell-based
T4 sequence (O95069 whole entry): T1 sequence (whole entry)

[16] = target: T1, Potassium channel subfamily K member 2 (Homo sapiens); assay: Antagonist activity at K2P2.1 (unknown origin) expressed in Xenopus oocytes assessed as suppression of channel currents at 20 uM at -80 mV holding potential by two-electrode voltage clamp assay relative to control; type: cell-based
[17] = target: T1, Potassium channel subfamily K member 2 (Homo sapiens); assay: Activation of K2P2.1 (unknown origin) expressed in Xenopus oocytes assessed as effect on channel currents at +40 mV holding potential at 100 uM by two-electrode voltage clamp assay; type: cell-based

Potassium channel subfamily K member 3 (Homo sapiens), sequence (O14649 whole entry, looked up): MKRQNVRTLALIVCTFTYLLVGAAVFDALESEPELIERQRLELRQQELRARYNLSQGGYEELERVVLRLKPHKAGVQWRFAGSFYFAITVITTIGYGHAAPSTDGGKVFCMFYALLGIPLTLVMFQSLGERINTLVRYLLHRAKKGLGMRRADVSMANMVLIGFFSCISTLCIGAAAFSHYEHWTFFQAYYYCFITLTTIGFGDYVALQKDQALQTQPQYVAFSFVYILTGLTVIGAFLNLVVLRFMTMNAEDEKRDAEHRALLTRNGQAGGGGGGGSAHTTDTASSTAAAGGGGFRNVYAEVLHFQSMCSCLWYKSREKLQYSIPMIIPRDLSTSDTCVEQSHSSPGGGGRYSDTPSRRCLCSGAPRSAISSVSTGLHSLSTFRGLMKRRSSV

Activity [1] | growth inhibition (GI) [2] [%] | Emax [3] | EC50 [4] [µM] | Activity [5] | Activity [6] | Activity [7] | Emax [8] | Activity [9] | Emax [10] | Activity [11] | Emax [12] | fold change (FC) [13] | inhibition [14] [%] | IC50 [15] [µM] | inhibition [16] [%] | Activity [17] | Structure (SMILES) | Ratio IC50 (Homo sapiens)
inactive | 66 | 1.2 | ≥ 250 | Active | Active | inactive | 10.1 | Active | 1.8 | inactive | 11 | < 11 |  |  |  |  | O=C(O)CCn1c2ccc(Cl)cc2c2cc(Cl)ccc21 | < 2
 | 66 |  |  |  |  |  |  |  |  |  |  |  | 70 | 21 | 30 | Active | Cc1cccc(-n2ncc3c(NCCc4ccccc4)ncnc32)c1 | < 2
